Values quoted from earlier work, collected in patent US9044531B2, “Vascular closure device” (Cordis Corporation, priority 2007, dated 2015).

System: S. aureus
Settings: measured in a suitable growth medium; Bhargava et al., American Journal of Infection Control, June 1996

Compound: Oc1cc(Cl)ccc1Oc1ccc(Cl)cc1Cl [2,4,4′-trichloro-2′-hydroxydiphenyl ether]
- minimum inhibitory concentration (MIC) against S. aureus: 0.01 ppm
